Results taken from patent publication US10246449B2, “1,2,3 triazole-thiazole compounds, process for preparation and use thereof” (Council of Scientific & Industrial Research, priority 2015, dated 2019).

| melting point | SMILES |
| --- | --- |
| 98 to 99 °C | CCCCc1cn(Cc2csc(-c3ccc(Cl)cc3)n2)nn1 [Compound 2, 4-((4-Butyl-1H-1,2,3-triazol-1-yl)methyl)-2-(4-chlorophenyl)thiazole] |
| 109 to 111 °C | Clc1ccc(-c2nc(Cn3cc(C4CC4)nn3)cs2)cc1 [Compound 3, 2-(4-Chlorophenyl)-4-((4-cyclopropyl-1H-1,2,3-triazol-1-yl)methyl)thiazole] |
| 152 to 154 °C | OCc1cn(Cc2csc(-c3ccc(Cl)cc3)n2)nn1 [Compound 4, (1-((2-(4-Chlorophenyl)thiazol-4-yl)methyl)-1H-1,2,3-triazol-4-yl)methanol] |
| 88 to 90 °C | CCCCCc1cn(Cc2csc(-c3ccc(Cl)cc3)n2)nn1 [Compound 5, 2-(4-Chlorophenyl)-4-((4-pentyl-1H-1,2,3-triazol-1-yl)methyl)thiazole] |
| 92 to 94 °C | Clc1ccc(-c2nc(Cn3cc(COC4CCCCO4)nn3)cs2)cc1 (centres unmarked) [Compound 6, 2-(4-Chlorophenyl)-4-((4-(((tetrahydro-2H-pyran-2-yl)oxy)methyl)-1H-1,2,3-triazol-1-yl)methyl)thiazole] |
| 149 to 151 °C | CCOC(=O)c1cn(Cc2csc(-c3ccc(Cl)cc3)n2)nn1 [Compound 7, Ethyl 1-((2-(4-chlorophenyl)thiazol-4-yl)methyl)-1H-1,2,3-triazole-4-carboxylate] |
| 157 to 159 °C | OCCCCc1cn(Cc2csc(-c3ccc(Cl)cc3)n2)nn1 [Compound 8, 4-(1-((2-(4-Chlorophenyl)thiazol-4-yl)methyl)-1H-1,2,3-triazol-4-yl)butan-1-ol] |
| 175 to 177 °C | Clc1ccc(-c2nc(Cn3nncc3-c3ccccc3)cs2)cc1 [Compound 9, 2-(4-chlorophenyl)-4-((5-phenyl-1H-1,2,3-triazol-1-yl)methyl)thiazole] |
